{
  "source": "patent US5977063A",
  "about": "“Alkylated hexapeptides” (Eli Lilly and Company, priority 1998, dated 1999)",
  "type_in_all_cases": "cell-based",
  "key": {"[1]": {"test_system": "Enterococcus faecium and faecalis (SENSITIVE)", "experiment": "MIC, standard broth micro-dilution assay, SENSITIVE enterococci", "design": "unit not given here", "settings": "geometric mean of 4-6 isolates", "method": "(§1) The antibacterial efficacy of the present compounds is illustrated by Table II. The minimal inhibitory concentrations (MICs) were determined using a standard broth micro-dilution assay."}, "[2]": {"test_system": "Staphylococcus aureus 446", "experiment": "MIC, standard broth micro-dilution assay, SA 446", "design": "unit not given here", "method": "as §1"}, "[3]": {"test_system": "Staphylococcus haemolyticus 105", "experiment": "MIC, standard broth micro-dilution assay, SH 105", "design": "unit not given here", "method": "as §1"}, "[4]": {"test_system": "Streptococcus pyogenes C203", "experiment": "MIC, standard broth micro-dilution assay, SPY C203", "design": "unit not given here", "method": "as §1"}, "[5]": {"test_system": "Staphylococcus epidermidis 270", "experiment": "MIC, standard broth micro-dilution assay, SE 270", "design": "unit not given here", "method": "as §1"}, "[6]": {"test_system": "Staphylococcus aureus 447", "experiment": "MIC, standard broth micro-dilution assay, SA 447", "design": "unit not given here", "method": "as §1"}, "[7]": {"test_system": "Staphylococcus aureus 489", "experiment": "MIC, standard broth micro-dilution assay, SA 489", "design": "unit not given here", "method": "as §1"}, "[8]": {"test_system": "Streptococcus pneumoniae P1", "experiment": "MIC, standard broth micro-dilution assay, SPN P1", "design": "unit not given here", "method": "as §1"}, "[9]": {"test_system": "Staphylococcus haemolyticus 415", "experiment": "MIC, standard broth micro-dilution assay, SH 415", "design": "unit not given here", "method": "as §1"}, "[10]": {"test_system": "Enterococcus faecium and faecalis (RESISTANT)", "settings": "geometric mean of 4-6 isolates", "method": "as §1"}},
  "data": [
    {"smiles": "CCCCCCCCOc1ccc(CN[C@H]2C(=O)N[C@@H](CC(N)=O)C(=O)N[C@H]3C(=O)N[C@H]4C(=O)N[C@H](C(=O)N[C@H](C(=O)O)c5cc(O)cc(O)c5-c5cc4ccc5O)[C@H](O[C@H]4C[C@](C)(N)[C@@H](O)[C@H](C)O4)c4ccc(c(Cl)c4)Oc4cc3cc(c4O[C@@H]3O[C@H](CO)[C@@H](O)[C@H](O)[C@H]3O[C@H]3C[C@](C)(N)[C@@H](O)[C@H](C)O3)Oc3ccc(cc3Cl)[C@H]2O)cc1", "note": "[Example 23, N^1 -(p-(n-OCTYLOXY)-BENZYL)DESLEUCYL-A82846B]", "values": [
      {"measurement": "Minimal Inhibitory Concentration (MIC) SENSITIVE", "setting": "[1]", "value": 9.2},
      {"measurement": "Minimal Inhibitory Concentration (MIC) SA 446", "setting": "[2]", "value": 8},
      {"measurement": "Minimal Inhibitory Concentration (MIC) SH 105", "setting": "[3]", "value": 4},
      {"measurement": "Minimal Inhibitory Concentration (MIC) SPY C203", "setting": "[4]", "value": 0.25},
      {"measurement": "Minimal Inhibitory Concentration (MIC) SE 270", "setting": "[5]", "value": 4},
      {"measurement": "Minimal Inhibitory Concentration (MIC) SA 447", "setting": "[6]", "value": 4},
      {"measurement": "Minimal Inhibitory Concentration (MIC) SA 489", "setting": "[7]", "value": 4},
      {"measurement": "Minimal Inhibitory Concentration (MIC) SPN P1", "setting": "[8]", "value": 1},
      {"measurement": "Minimal Inhibitory Concentration (MIC) SH 415", "setting": "[9]", "value": 8},
      {"measurement": "Minimal Inhibitory Concentration (MIC) RESISTANT", "setting": "[10]", "value": 11}
    ]},
    {"smiles": "CSc1ccc(CN[C@H]2C(=O)N[C@@H](CC(N)=O)C(=O)N[C@H]3C(=O)N[C@H]4C(=O)N[C@H](C(=O)N[C@H](C(=O)O)c5cc(O)cc(O)c5-c5cc4ccc5O)[C@H](O[C@H]4C[C@](C)(N)[C@@H](O)[C@H](C)O4)c4ccc(c(Cl)c4)Oc4cc3cc(c4O[C@@H]3O[C@H](CO)[C@@H](O)[C@H](O)[C@H]3O[C@H]3C[C@](C)(N)[C@@H](O)[C@H](C)O3)Oc3ccc(cc3Cl)[C@H]2O)cc1", "note": "[Example 24, N^1 -(p-(METHYLTHIO)-BENZYL)DESLEUCYL-A82846B]", "values": [
      {"measurement": "Minimal Inhibitory Concentration (MIC) SENSITIVE", "setting": "[1]", "value": "> 128"},
      {"measurement": "Minimal Inhibitory Concentration (MIC) SA 446", "setting": "[2]", "value": 32},
      {"measurement": "Minimal Inhibitory Concentration (MIC) SH 105", "setting": "[3]", "value": 32},
      {"measurement": "Minimal Inhibitory Concentration (MIC) SPY C203", "setting": "[4]", "value": 8},
      {"measurement": "Minimal Inhibitory Concentration (MIC) SE 270", "setting": "[5]", "value": 32},
      {"measurement": "Minimal Inhibitory Concentration (MIC) SA 447", "setting": "[6]", "value": 32},
      {"measurement": "Minimal Inhibitory Concentration (MIC) SA 489", "setting": "[7]", "value": 16},
      {"measurement": "Minimal Inhibitory Concentration (MIC) SPN P1", "setting": "[8]", "value": 8},
      {"measurement": "Minimal Inhibitory Concentration (MIC) SH 415", "setting": "[9]", "value": 64},
      {"measurement": "Minimal Inhibitory Concentration (MIC) RESISTANT", "setting": "[10]", "value": "> 128"}
    ]},
    {"smiles": "CSc1ccc(CN[C@H]2C(=O)N[C@@H](CC(N)=O)C(=O)N[C@H]3C(=O)N[C@H]4C(=O)N[C@H](C(=O)N[C@H](C(=O)O)c5cc(O)cc(O)c5-c5cc4ccc5O)[C@H](O[C@H]4C[C@](C)(N)[C@@H](O)[C@H](C)O4)c4ccc(c(Cl)c4)Oc4cc3cc(c4O[C@@H]3O[C@H](CO)[C@@H](O)[C@H](O)[C@H]3O[C@H]3C[C@](C)(NCc4ccc(SC)cc4)[C@@H](O)[C@H](C)O3)Oc3ccc(cc3Cl)[C@H]2O)cc1", "note": "[Example 25, N^1,N^DISACC -BIS(p-(METHYLTHIO)-BENZYL)DESLEUCYL-A82846B]", "values": [
      {"measurement": "Minimal Inhibitory Concentration (MIC) SENSITIVE", "setting": "[1]", "value": 2.6},
      {"measurement": "Minimal Inhibitory Concentration (MIC) SA 446", "setting": "[2]", "value": 8},
      {"measurement": "Minimal Inhibitory Concentration (MIC) SH 105", "setting": "[3]", "value": 4},
      {"measurement": "Minimal Inhibitory Concentration (MIC) SPY C203", "setting": "[4]", "value": 4},
      {"measurement": "Minimal Inhibitory Concentration (MIC) SE 270", "setting": "[5]", "value": 8},
      {"measurement": "Minimal Inhibitory Concentration (MIC) SA 447", "setting": "[6]", "value": 4},
      {"measurement": "Minimal Inhibitory Concentration (MIC) SA 489", "setting": "[7]", "value": 4},
      {"measurement": "Minimal Inhibitory Concentration (MIC) SPN P1", "setting": "[8]", "value": 1},
      {"measurement": "Minimal Inhibitory Concentration (MIC) SH 415", "setting": "[9]", "value": 8},
      {"measurement": "Minimal Inhibitory Concentration (MIC) RESISTANT", "setting": "[10]", "value": 6.7}
    ]},
    {"smiles": "C[C@@H]1O[C@@H](O[C@@H]2c3ccc(c(Cl)c3)Oc3cc4cc(c3O[C@@H]3O[C@H](CO)[C@@H](O)[C@H](O)[C@H]3O[C@H]3C[C@](C)(NCc5ccc(-c6ccccc6)cc5)[C@@H](O)[C@H](C)O3)Oc3ccc(cc3Cl)[C@@H](O)[C@@H](NCc3ccc(-c5cc(C(F)(F)F)cc(C(F)(F)F)c5)cc3)C(=O)N[C@@H](CC(N)=O)C(=O)N[C@H]4C(=O)N[C@H]3C(=O)N[C@@H]2C(=O)N[C@H](C(=O)O)c2cc(O)cc(O)c2-c2cc3ccc2O)C[C@](C)(N)[C@H]1O", "note": "[Example 26, N^1 -(p-(3,5-BIS-(TRIFLUOROMETHYL)-PHENYL)BENZYL)-N^DISACC -(p-PHENYLBENZYL)-DESLEUCYL-A82846B]", "values": [
      {"measurement": "Minimal Inhibitory Concentration (MIC) SENSITIVE", "setting": "[1]", "value": 6.1},
      {"measurement": "Minimal Inhibitory Concentration (MIC) SA 446", "setting": "[2]", "value": 8},
      {"measurement": "Minimal Inhibitory Concentration (MIC) SH 105", "setting": "[3]", "value": 2},
      {"measurement": "Minimal Inhibitory Concentration (MIC) SPY C203", "setting": "[4]", "value": 0.25},
      {"measurement": "Minimal Inhibitory Concentration (MIC) SE 270", "setting": "[5]", "value": 4},
      {"measurement": "Minimal Inhibitory Concentration (MIC) SA 447", "setting": "[6]", "value": 4},
      {"measurement": "Minimal Inhibitory Concentration (MIC) SA 489", "setting": "[7]", "value": 4},
      {"measurement": "Minimal Inhibitory Concentration (MIC) SPN P1", "setting": "[8]", "value": "≤ .06"},
      {"measurement": "Minimal Inhibitory Concentration (MIC) SH 415", "setting": "[9]", "value": 4},
      {"measurement": "Minimal Inhibitory Concentration (MIC) RESISTANT", "setting": "[10]", "value": 5.7}
    ]},
    {"smiles": "C[C@@H]1O[C@@H](O[C@@H]2c3ccc(c(Cl)c3)Oc3cc4cc(c3O[C@@H]3O[C@H](CO)[C@@H](O)[C@H](O)[C@H]3O[C@H]3C[C@](C)(NCc5ccc(-c6ccc(Cl)cc6)cc5)[C@@H](O)[C@H](C)O3)Oc3ccc(cc3Cl)[C@@H](O)[C@@H](NCc3ccc(-c5cc(C(F)(F)F)cc(C(F)(F)F)c5)cc3)C(=O)N[C@@H](CC(N)=O)C(=O)N[C@H]4C(=O)N[C@H]3C(=O)N[C@@H]2C(=O)N[C@H](C(=O)O)c2cc(O)cc(O)c2-c2cc3ccc2O)C[C@](C)(N)[C@H]1O", "note": "[Example 27, N^1 -(p-(3,5-BIS-(TRIFLUOROMETHYL)-PHENYL)BENZYL)-N^DISACC -(p-(p-CHLOROPHENYL)BENZYL-DESLEUCYL-A82846B]", "values": [
      {"measurement": "Minimal Inhibitory Concentration (MIC) SENSITIVE", "setting": "[1]", "value": 6.1},
      {"measurement": "Minimal Inhibitory Concentration (MIC) SA 446", "setting": "[2]", "value": 64},
      {"measurement": "Minimal Inhibitory Concentration (MIC) SH 105", "setting": "[3]", "value": 8},
      {"measurement": "Minimal Inhibitory Concentration (MIC) SPY C203", "setting": "[4]", "value": 64},
      {"measurement": "Minimal Inhibitory Concentration (MIC) SE 270", "setting": "[5]", "value": 8},
      {"measurement": "Minimal Inhibitory Concentration (MIC) SA 447", "setting": "[6]", "value": 32},
      {"measurement": "Minimal Inhibitory Concentration (MIC) SA 489", "setting": "[7]", "value": 32},
      {"measurement": "Minimal Inhibitory Concentration (MIC) SPN P1", "setting": "[8]", "value": 32},
      {"measurement": "Minimal Inhibitory Concentration (MIC) SH 415", "setting": "[9]", "value": 32},
      {"measurement": "Minimal Inhibitory Concentration (MIC) RESISTANT", "setting": "[10]", "value": 9.5}
    ]},
    {"smiles": "C[C@@H]1O[C@@H](O[C@@H]2c3ccc(c(Cl)c3)Oc3cc4cc(c3O[C@@H]3O[C@H](CO)[C@@H](O)[C@H](O)[C@H]3O[C@H]3C[C@](C)(NCc5ccc(-c6ccc(Cl)cc6)cc5)[C@@H](O)[C@H](C)O3)Oc3ccc(cc3Cl)[C@@H](O)[C@@H](NCCCCCCc3ccccc3)C(=O)N[C@@H](CC(N)=O)C(=O)N[C@H]4C(=O)N[C@H]3C(=O)N[C@@H]2C(=O)N[C@H](C(=O)O)c2cc(O)cc(O)c2-c2cc3ccc2O)C[C@](C)(N)[C@H]1O", "note": "[Example 28, N^1 -(6-PHENYL-n-HEXYL)-N^DISACC -(p-(p-CHLOROPHENYL)BENZYL)DESLEUCYL-A82846B]", "values": [
      {"measurement": "Minimal Inhibitory Concentration (MIC) SENSITIVE", "setting": "[1]", "value": 7},
      {"measurement": "Minimal Inhibitory Concentration (MIC) SA 446", "setting": "[2]", "value": 8},
      {"measurement": "Minimal Inhibitory Concentration (MIC) SH 105", "setting": "[3]", "value": 4},
      {"measurement": "Minimal Inhibitory Concentration (MIC) SPY C203", "setting": "[4]", "value": 4},
      {"measurement": "Minimal Inhibitory Concentration (MIC) SE 270", "setting": "[5]", "value": 4},
      {"measurement": "Minimal Inhibitory Concentration (MIC) SA 447", "setting": "[6]", "value": 8},
      {"measurement": "Minimal Inhibitory Concentration (MIC) SA 489", "setting": "[7]", "value": 8},
      {"measurement": "Minimal Inhibitory Concentration (MIC) SPN P1", "setting": "[8]", "value": 16},
      {"measurement": "Minimal Inhibitory Concentration (MIC) SH 415", "setting": "[9]", "value": 2},
      {"measurement": "Minimal Inhibitory Concentration (MIC) RESISTANT", "setting": "[10]", "value": 6.7}
    ]}
  ]
}
